# In the supplement of paper PMC10307832:
# Assays:
# Assay in all cases: relative viability (nuclei count vs DMSO), 5 days (fraction); higher = more cells survive
# AT-7519 + Vorinostat = compound: O=C(NC1CCNCC1)c1n[nH]cc1NC(=O)c1c(Cl)cccc1Cl [AT-7519] + O=C(CCCCCCC(=O)Nc1ccccc1)NO [Vorinostat] (partner 1 µM)
# Procedure, shortened: (§1)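 A single step with final 0.05% Triton X-100, 1% formaldehyde and 1 ug/ml Hoechst fixed the cells and stained nuclei 5 days after treatment. Lung cancer cell lines in 1536-well plates had been treated by pin tool the day after seeding with one drug alone or a fixed anchor-drug dose plus five library-drug doses (not always all listed) in √10 steps, and nuclei were counted on 4× images. Relative viability is the ratio of nuclei in treated wells to nuclei in vehicle wells, taken as the median of duplicate plates.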
# [1] = compound: C1=CC2=C(C=C(C(=C2N=C1)O)N=NC3=CC4=C(C=C3)C=C(C=C4)S(=O)(=O)O)S(=O)(=O)O + C[C@@H](Oc1cc(-c2cnn(C3CCNCC3)c2)cnc1N)c1c(Cl)ccc(F)c1Cl [Crizotinib] (partner 1 µM)
# Procedure, shortened: as §1
# AT-7519 + Tozasertib = compound: O=C(NC1CCNCC1)c1n[nH]cc1NC(=O)c1c(Cl)cccc1Cl [AT-7519] + Cc1cc(Nc2cc(N3CCN(C)CC3)nc(Sc3ccc(NC(=O)C4CC4)cc3)n2)n[nH]1 [Tozasertib] (partner 0.1 µM)
# Procedure, shortened: as §1
# [2] = compound: C1=CC2=C(C=C(C(=C2N=C1)O)N=NC3=CC4=C(C=C3)C=C(C=C4)S(=O)(=O)O)S(=O)(=O)O + Nc1ncn([C@H]2C[C@H](O)[C@@H](CO)O2)c(=O)n1 [Decitabine] (partner 2 µM)
# Procedure, shortened: as §1
Cell Line,relative viability (AT-7519 + Vorinostat; first compound 0.01 µM),relative viability (AT-7519 + Vorinostat; first compound 0.03162 µM),relative viability (AT-7519 + Vorinostat; first compound 0.3162 µM),relative viability (AT-7519 + Vorinostat; first compound 1 µM),relative viability ([1]; first compound 0.08 µM),relative viability ([1]; first compound 0.253 µM),relative viability ([1]; first compound 0.8 µM),relative viability ([1]; first compound 2.53 µM),relative viability ([1]; first compound 8 µM),relative viability (AT-7519 + Tozasertib; first compound 0.01 µM),relative viability (AT-7519 + Tozasertib; first compound 0.03162 µM),relative viability (AT-7519 + Tozasertib; first compound 0.3162 µM),relative viability (AT-7519 + Tozasertib; first compound 1 µM),relative viability ([2]; first compound 0.08 µM),relative viability ([2]; first compound 0.253 µM),relative viability ([2]; first compound 0.8 µM),relative viability ([2]; first compound 2.53 µM),relative viability ([2]; first compound 8 µM)
COR-L 105,0.791,0.856,0.686,0.499,0.999,0.71,0.797,0.881,0.717,0.327,0.382,0.378,0.413,0.711,0.705,0.65,0.647,0.567
NCI-H1975,0.805,0.679,0.624,0.27,1.1,0.961,1.01,0.994,0.929,0.609,0.7,0.626,0.133,0.462,0.393,0.405,0.384,0.408
NCI-H1993,0.629,0.605,0.82,0.539,0.866,0.904,0.864,0.797,0.896,0.547,0.584,0.544,0.506,0.573,0.669,0.624,0.59,0.634
RERF-LC-KJ,0.776,0.666,0.631,0.459,0.828,0.797,0.782,0.872,0.869,0.426,0.505,0.5,0.204,0.654,0.684,0.637,0.761,0.631
NCI-H23,0.598,0.619,0.513,0.4,0.539,0.614,0.463,0.533,0.51,0.332,0.361,0.337,0.395,0.331,0.304,0.335,0.311,0.302
HCC-366,0.254,0.325,0.278,0.241,0.759,0.445,0.404,0.618,0.46,0.0905,0.186,0.119,0.0621,0.299,0.307,0.347,0.357,0.358
EMC-BAC-2,0.424,0.422,0.531,0.878,0.777,0.751,0.704,0.806,0.757,0.339,0.286,0.302,0.308,1.03,0.991,0.953,1.05,0.98
NCI-H2405,1.08,0.988,0.954,0.852,0.927,0.806,0.808,0.847,0.869,0.819,0.797,0.725,0.463,0.744,0.685,0.7,0.828,0.742
NCI-H358,0.646,0.604,0.5,0.108,0.582,0.606,0.616,0.618,0.351,0.111,0.116,0.0818,0.0852,0.245,0.216,0.218,0.203,0.132
NCI-H1944,0.547,0.528,0.534,0.436,1.24,1.1,1.09,1.12,0.846,0.25,0.24,0.249,0.213,0.448,0.437,0.446,0.376,0.38
EPLC-272H,0.406,0.328,0.36,0.0395,1.14,0.883,0.977,0.978,0.964,0.376,0.26,0.39,0.243,0.415,0.372,0.37,0.438,0.375
NCI-H1915,0.537,0.558,0.588,0.546,0.973,0.864,0.893,0.912,0.925,0.482,0.461,0.456,0.347,0.25,0.25,0.268,0.263,0.274
NCI-H596,0.584,0.611,0.471,0.697,1.13,1.02,0.921,0.899,0.898,0.78,0.811,1,0.849,1.1,0.954,1.01,1.02,1.38
NCI-H322M,0.846,0.982,0.731,0.83,1.12,0.892,0.904,1.07,1.02,0.493,0.497,0.361,0.196,0.764,0.715,0.708,0.723,0.768
NCI-H647,0.568,0.369,0.562,0.244,1.36,0.865,1.05,1.08,0.962,0.44,0.218,0.22,0.227,0.35,0.412,0.415,0.45,0.401
SK-MES-1,1.2,1.1,1.05,0.934,0.96,0.886,0.963,1,0.948,0.928,1,0.814,0.243,0.39,0.362,0.336,0.405,0.367
NCI-H2170,0.718,0.867,0.869,0.736,1.38,1.1,1.15,1.23,1.2,0.672,0.751,0.762,0.651,0.494,0.454,0.464,0.429,0.459
